In experiment [1] the target is Serine/threonine-protein kinase 38-like (Homo sapiens) (UniProt Q9Y2H1). Briefly: Selectivity interaction (LanthaScreen Eu Kinase Binding Assay) EUB0001632a STK38L. Conditions: at 10 µM.
Experiment [2] concerns the target T1, Serine/threonine-protein kinase Nek9 (Homo sapiens) (UniProt Q8TD19).
T1 sequence (whole entry): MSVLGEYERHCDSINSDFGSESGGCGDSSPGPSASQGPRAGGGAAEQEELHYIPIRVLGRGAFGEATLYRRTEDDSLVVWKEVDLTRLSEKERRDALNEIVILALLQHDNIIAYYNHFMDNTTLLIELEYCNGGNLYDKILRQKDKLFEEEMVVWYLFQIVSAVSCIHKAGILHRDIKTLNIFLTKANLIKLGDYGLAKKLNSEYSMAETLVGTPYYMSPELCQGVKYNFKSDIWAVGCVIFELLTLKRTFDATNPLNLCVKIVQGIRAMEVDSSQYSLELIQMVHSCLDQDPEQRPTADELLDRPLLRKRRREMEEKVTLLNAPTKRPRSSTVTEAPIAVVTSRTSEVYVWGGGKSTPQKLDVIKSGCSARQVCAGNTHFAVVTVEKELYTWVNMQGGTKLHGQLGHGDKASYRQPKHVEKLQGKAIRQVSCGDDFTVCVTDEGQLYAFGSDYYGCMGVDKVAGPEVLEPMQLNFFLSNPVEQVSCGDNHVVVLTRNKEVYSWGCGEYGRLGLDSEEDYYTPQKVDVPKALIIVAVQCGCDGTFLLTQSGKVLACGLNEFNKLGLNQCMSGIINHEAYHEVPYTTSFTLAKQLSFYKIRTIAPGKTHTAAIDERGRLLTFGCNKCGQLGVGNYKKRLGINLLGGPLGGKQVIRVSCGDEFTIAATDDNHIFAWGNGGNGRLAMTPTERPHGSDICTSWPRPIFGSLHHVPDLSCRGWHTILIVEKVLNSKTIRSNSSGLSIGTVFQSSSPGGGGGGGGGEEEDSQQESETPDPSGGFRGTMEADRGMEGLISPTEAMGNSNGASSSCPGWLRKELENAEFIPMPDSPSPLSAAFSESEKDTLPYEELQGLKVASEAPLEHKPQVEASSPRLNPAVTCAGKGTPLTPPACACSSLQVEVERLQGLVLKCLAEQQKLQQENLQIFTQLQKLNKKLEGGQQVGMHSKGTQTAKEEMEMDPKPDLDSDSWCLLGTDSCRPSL
Briefly: Selectivity interaction (Ambit KINOMEscan and KiNATiv profiling in Jurkat cells) EUB0000090b NEK9. Type of experiment: cell-based. Conditions: at 1 µM.

Experiment [3] concerns the target Transient receptor potential cation channel subfamily M member 6 (Homo sapiens) (UniProt Q9BX84). As to conditions: at 10 µM.
In experiment [4] the target is T2, Histone-arginine methyltransferase CARM1 (Homo sapiens) (UniProt Q86X55).
T2 sequence (whole entry): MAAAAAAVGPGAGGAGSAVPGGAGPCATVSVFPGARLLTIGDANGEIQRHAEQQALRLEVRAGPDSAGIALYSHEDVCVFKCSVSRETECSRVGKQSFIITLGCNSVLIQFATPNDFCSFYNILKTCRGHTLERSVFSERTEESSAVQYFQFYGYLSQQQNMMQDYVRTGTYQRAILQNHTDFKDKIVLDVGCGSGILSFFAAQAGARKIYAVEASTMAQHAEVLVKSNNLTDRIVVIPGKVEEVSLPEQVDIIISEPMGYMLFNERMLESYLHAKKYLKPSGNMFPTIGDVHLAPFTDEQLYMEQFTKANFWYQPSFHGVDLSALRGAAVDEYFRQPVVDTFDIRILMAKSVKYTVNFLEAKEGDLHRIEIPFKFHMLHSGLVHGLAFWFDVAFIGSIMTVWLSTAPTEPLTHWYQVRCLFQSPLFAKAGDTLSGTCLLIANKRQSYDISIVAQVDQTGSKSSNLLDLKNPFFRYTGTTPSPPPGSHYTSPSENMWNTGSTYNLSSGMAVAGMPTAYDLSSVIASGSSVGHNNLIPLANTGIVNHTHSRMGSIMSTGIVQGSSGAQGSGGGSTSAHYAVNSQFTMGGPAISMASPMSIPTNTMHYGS
As to conditions: U-266, at 3 µM.

In experiment [5] the target is Serine/threonine-protein kinase WNK3 (Homo sapiens) (UniProt Q9BYP7). Nature of the experiment: Selectivity interaction (ActivX KiNativ screen (ex vivo kinase selectivity in human PBMCs)) EUB0001619a WNK3. The experiment is classed as cell-based. As to conditions: PBMC, at 1 µM.
Experiment [6] concerns the target Serine/threonine-protein kinase Nek7 (Homo sapiens) (UniProt Q8TDX7). Briefly: Selectivity interaction (ActivX KiNativ screen (kinase selectivity in THP-1 cell lysates)) EUB0000639a NEK7. The experiment is classed as subcellular. Conditions: lysate, at 0.01 µM.
The target in experiment [7] is T3, Serine/threonine-protein kinase Sgk3 (Homo sapiens) (UniProt Q96BR1).
T3 sequence (whole entry): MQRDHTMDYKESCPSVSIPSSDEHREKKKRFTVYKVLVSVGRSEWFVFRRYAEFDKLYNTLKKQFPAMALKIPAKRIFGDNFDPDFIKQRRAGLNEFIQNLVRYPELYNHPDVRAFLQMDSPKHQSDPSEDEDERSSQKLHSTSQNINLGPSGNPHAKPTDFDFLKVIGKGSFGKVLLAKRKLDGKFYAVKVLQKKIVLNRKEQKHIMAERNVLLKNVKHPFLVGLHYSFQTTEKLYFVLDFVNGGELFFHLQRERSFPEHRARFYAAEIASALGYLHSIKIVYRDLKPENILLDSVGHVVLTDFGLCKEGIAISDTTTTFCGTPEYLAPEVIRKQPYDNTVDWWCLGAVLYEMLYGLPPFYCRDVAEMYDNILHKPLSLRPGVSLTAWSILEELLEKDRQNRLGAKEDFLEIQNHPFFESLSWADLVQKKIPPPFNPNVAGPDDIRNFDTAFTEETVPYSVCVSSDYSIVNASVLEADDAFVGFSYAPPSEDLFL
Briefly: Selectivity interaction (Kinase screening (Nanosyn)) EUB0000604a SGK3.

The target in experiment [8] is T4, Dual specificity mitogen-activated protein kinase kinase 3 (Homo sapiens) (UniProt P46734).
T4 sequence (whole entry): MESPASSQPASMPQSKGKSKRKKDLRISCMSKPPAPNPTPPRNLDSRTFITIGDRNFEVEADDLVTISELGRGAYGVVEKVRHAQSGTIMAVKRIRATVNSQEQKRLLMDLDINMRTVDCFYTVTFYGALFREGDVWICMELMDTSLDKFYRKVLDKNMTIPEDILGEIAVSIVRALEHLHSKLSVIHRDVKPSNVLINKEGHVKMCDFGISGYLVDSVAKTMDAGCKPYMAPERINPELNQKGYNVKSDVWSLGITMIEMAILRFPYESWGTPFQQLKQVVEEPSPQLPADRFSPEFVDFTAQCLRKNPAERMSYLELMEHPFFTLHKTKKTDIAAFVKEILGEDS
Nature of the experiment: Selectivity interaction (KinomeScan (DiscoverX)) EUB0000695a MAP2K3. As to conditions: at 100 nM.

The target of experiment [9] is Tyrosine-protein kinase Fer (Homo sapiens) (UniProt P16591). Briefly: Selectivity interaction (ProQinase) EUB0000171b FER.

For nine molecules, % of inhibition, % of control and % of growth rate results are on record in ChEMBL document CHEMBL5465560, “Selectivity Literature for EUbOPEN Chemogenomic Library” (2024).

Chain of Tyrosine-protein kinase Fer (Homo sapiens) (P16591 whole entry, looked up): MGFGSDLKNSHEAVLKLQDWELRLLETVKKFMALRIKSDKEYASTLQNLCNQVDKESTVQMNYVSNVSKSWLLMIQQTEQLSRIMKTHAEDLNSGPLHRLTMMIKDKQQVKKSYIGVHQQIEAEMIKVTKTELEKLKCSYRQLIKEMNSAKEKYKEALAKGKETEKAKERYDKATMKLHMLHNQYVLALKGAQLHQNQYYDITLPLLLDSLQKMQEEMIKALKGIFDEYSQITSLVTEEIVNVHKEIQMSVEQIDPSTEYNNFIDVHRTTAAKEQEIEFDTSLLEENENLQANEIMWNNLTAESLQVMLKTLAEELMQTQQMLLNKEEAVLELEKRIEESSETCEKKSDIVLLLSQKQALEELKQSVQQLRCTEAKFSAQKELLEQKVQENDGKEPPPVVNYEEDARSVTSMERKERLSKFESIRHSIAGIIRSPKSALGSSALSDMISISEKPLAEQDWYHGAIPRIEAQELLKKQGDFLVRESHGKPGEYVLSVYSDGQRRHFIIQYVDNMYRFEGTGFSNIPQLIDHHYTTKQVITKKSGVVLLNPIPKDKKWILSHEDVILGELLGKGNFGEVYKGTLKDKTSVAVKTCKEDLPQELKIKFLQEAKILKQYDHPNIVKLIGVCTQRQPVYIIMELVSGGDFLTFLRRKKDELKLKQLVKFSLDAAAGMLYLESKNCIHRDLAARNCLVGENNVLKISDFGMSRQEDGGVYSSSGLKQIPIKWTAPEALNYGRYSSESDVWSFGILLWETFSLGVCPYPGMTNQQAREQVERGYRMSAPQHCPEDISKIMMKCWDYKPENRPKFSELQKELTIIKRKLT
Chain of Transient receptor potential cation channel subfamily M member 6 (Homo sapiens) (Q9BX84 whole entry): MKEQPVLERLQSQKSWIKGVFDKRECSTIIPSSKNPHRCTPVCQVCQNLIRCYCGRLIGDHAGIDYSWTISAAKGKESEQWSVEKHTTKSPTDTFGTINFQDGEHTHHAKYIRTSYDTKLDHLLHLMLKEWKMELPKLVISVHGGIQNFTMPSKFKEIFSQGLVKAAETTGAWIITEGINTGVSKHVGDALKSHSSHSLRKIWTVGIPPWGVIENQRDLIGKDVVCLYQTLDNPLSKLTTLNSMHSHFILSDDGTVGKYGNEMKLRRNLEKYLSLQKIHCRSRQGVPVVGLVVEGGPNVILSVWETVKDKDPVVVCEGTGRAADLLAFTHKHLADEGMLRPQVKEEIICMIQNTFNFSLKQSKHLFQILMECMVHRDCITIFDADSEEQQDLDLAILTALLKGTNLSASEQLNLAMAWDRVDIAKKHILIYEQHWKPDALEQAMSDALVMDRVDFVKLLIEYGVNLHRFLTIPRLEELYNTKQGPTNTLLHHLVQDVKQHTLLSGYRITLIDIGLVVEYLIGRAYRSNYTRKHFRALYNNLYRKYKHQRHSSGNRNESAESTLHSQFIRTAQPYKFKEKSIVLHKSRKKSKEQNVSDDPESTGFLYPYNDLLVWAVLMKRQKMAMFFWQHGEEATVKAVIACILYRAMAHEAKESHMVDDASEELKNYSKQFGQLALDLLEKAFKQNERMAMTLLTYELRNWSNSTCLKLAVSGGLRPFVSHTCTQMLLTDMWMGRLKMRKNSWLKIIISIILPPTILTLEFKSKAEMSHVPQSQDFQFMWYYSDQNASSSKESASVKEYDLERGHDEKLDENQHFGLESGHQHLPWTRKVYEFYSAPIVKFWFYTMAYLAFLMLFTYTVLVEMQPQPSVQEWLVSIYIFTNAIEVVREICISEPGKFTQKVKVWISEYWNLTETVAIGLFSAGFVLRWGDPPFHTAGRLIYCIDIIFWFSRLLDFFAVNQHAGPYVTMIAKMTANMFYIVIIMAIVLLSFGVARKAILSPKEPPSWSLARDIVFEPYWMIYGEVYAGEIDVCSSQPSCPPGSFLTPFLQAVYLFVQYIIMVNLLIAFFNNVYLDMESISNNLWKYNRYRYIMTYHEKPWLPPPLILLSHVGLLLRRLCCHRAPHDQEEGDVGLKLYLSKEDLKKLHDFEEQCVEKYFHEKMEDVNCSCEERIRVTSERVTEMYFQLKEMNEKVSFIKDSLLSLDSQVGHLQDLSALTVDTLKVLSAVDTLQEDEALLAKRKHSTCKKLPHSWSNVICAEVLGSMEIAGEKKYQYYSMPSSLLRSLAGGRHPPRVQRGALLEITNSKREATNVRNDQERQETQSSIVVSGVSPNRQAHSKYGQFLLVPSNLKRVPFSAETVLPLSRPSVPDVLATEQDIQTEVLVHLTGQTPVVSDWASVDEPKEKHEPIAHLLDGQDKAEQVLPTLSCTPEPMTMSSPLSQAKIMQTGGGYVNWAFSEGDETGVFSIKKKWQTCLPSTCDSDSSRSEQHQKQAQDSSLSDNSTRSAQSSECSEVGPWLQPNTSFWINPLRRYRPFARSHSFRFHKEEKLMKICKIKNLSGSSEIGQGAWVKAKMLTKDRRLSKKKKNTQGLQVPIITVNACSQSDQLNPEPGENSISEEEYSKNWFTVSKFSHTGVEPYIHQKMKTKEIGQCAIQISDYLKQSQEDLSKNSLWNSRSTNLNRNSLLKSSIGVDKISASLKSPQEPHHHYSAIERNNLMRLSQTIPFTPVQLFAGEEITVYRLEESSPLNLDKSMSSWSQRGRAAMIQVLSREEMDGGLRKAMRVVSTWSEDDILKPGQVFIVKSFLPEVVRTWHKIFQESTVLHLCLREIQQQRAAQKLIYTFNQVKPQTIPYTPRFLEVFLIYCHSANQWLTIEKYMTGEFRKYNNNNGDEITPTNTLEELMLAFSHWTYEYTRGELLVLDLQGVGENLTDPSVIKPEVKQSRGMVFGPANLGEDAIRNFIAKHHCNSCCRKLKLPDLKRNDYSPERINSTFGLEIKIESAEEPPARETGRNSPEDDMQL
Chain of Serine/threonine-protein kinase WNK3 (Homo sapiens) (Q9BYP7 whole entry): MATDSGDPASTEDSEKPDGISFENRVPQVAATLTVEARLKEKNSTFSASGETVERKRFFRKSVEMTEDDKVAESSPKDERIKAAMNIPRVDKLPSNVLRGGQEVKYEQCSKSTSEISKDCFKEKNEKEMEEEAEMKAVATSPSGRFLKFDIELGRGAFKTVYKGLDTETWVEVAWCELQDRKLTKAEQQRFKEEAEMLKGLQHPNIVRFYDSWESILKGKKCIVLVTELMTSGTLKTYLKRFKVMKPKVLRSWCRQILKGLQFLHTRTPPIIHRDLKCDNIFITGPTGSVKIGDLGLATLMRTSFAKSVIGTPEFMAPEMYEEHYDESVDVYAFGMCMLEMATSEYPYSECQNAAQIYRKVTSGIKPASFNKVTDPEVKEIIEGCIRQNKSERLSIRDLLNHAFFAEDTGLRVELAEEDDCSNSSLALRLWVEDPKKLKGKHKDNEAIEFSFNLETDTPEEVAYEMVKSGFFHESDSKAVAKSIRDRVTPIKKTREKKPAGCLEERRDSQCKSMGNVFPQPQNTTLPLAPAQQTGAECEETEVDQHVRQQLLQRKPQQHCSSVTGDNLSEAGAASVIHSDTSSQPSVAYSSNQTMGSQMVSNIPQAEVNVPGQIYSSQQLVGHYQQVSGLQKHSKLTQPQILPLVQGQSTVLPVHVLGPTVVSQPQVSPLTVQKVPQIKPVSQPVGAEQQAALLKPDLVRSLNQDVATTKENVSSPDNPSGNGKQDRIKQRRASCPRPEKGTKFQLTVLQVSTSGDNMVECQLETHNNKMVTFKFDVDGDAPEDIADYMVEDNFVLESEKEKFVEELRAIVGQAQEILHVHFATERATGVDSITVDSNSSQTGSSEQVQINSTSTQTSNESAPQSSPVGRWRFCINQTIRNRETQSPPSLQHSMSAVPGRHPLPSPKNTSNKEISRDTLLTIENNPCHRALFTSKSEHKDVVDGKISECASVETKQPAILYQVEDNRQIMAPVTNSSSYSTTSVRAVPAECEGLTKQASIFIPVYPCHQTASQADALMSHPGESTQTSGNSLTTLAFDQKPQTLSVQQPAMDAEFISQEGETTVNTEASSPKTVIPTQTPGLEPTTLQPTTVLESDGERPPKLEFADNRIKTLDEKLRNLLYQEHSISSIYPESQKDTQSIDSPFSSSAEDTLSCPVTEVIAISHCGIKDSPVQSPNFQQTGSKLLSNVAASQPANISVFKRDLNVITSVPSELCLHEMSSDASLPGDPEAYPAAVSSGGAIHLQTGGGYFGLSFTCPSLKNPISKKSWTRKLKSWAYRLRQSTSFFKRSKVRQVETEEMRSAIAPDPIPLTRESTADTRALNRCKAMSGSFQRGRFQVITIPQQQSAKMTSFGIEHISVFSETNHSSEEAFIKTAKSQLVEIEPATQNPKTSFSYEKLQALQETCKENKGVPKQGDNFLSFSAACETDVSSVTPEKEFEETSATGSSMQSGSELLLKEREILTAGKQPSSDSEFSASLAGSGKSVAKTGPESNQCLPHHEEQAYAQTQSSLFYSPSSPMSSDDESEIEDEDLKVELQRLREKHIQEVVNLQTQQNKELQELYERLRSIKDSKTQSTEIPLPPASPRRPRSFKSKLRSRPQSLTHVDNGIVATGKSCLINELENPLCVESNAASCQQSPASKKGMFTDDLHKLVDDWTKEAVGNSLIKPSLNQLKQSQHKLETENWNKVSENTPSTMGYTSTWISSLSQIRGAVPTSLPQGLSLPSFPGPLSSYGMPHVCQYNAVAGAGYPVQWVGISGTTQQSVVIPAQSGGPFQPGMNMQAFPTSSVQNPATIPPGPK
Chain of Serine/threonine-protein kinase Nek7 (Homo sapiens) (Q8TDX7 whole entry, looked up): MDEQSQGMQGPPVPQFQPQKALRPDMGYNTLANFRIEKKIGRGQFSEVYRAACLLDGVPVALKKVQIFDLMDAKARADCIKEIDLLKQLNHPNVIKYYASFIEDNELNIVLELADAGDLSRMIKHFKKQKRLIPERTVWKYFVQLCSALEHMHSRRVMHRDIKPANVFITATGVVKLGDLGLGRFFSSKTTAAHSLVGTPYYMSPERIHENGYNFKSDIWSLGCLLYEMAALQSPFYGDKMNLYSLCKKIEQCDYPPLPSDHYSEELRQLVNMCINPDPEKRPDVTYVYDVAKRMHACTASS

For the molecule `Cn1cc(-n2cnc3c(NCc4nc5cc(Cl)c(Cl)cc5[nH]4)nc(N4CCOCC4)nc32)cn1`, in experiment [1], the % of inhibition was -54.8%.

In [2], `CN(C)C/C=C/C(=O)Nc1ccc(C(=O)N2CCCC(Nc3ncc(Cl)c(-c4c[nH]c5ccccc45)n3)C2)cc1` (stereo not given) returned a % of control of 100%.

For the molecule `Cc1cc([C@@H](C)Nc2ccccc2C(=O)O)c2nc(N3CCOCC3)cc(=O)n2c1` [AZD-6482], the % of control in experiment [3] stood at 100%.

Turning to `CNCCN1CCC(c2cc(CN(C)C(=O)c3cccc(Oc4ccccc4)c3)ccn2)CC1`, the % of growth rate in experiment [4] is -24.4%.

In the case of `N#Cc1cccc(-c2c[nH]c3ncnc(N4CCOCC4)c23)c1`, the % of inhibition in [5] is -6%.

Regarding `CC[C@@H]1[C@H](F)C(=O)N[C@@H]1COc1nccc2cc(C(N)=O)c(OC)cc12` [ZIMLOVISERTIB], the % of inhibition in experiment [6] is -2.2%.

Regarding `Cc1cnc(Nc2ccc(F)cc2Cl)nc1-c1c[nH]c(C(=O)N[C@H](CO)c2cccc(Cl)c2)c1`, the % of inhibition in experiment [7] came to 2%.

In turn, `Cc1cc(F)c(C(=O)Nc2cccc(-c3nncn3C(C)C)n2)cc1-n1cnc(C2CC2)c1` showed a % of control in [8] of 89%.

Take `C=CC(=O)Nc1cccc(C(=O)Nc2ccc(Nc3cc(-c4[nH]c(SC)nc4C)ccn3)cc2)c1`: the % of control in experiment [9] (at 1 µM) came to 104%; in experiment [9] (at 5 µM) it was 93%.
